Test results published in patent US8658616B2, “Nucleoside aryl phosphoramidates and their use as anti-viral agents for the treatment of hepatitis C virus” (University College Cardiff Consultants Limited, priority 2006, dated 2014).
Values joined by “and” are separate entries in the source; they are usually repeats but may differ in a detail not shown here. Equal entries are not always repeated. Where two headings read alike, the source gives them in different places.

Experiments:
[1] = system: subgenomic HCV replicons I389luc-ubi-neo/NS3-3′/5.1 (Huh 5-2); assay: Anti-HCV assay in Huh 5-2 cells (luciferase replicon); type: cell-based, hepatitis C virus (HCV); details: for potency with respect to HCV compared with compound CHC5 (free nucleoside): comparison of Table I data
Source text: (§1) Anti-HCV assay in Huh 7 cells. Huh 7 cells containing subgenomic HCV replicons I389luc-ubi-neo/NS3-3′/5.1 (Huh 5-2) or I377/NS3-3′/wt (Huh 9-13) have been described (Lohmann V, Korner F, Koch J, Herian U, Theilmann L, Bartenschlager R. (1999) Replication of subgenomic hepatitis C virus RNAs in a hepatoma cell line. Science 285:110-113. Lohmann V, Korner F, Dobierzewska A, Bartenschlager R. (2001) Mutations in hepatitis C virus RNAs conferring cell culture adaptation. J Virol. 75:1437-1449.). Cells were grown in Dulbecco's modified Eagle's Medium (DMEM; Gibco, Merelbeke, Belgium) supplemented with 10% heat-inactivated fetal bovine serum (FCS) (Integro, Zaandam, The Netherlands), 1× non-essential amino acids (Gibco), 100 IU/ml penicillin (Gibco), 100 μg/ml streptomycin (Gibco) and 250 μg/ml Geneticin (G418, Gibco) for Huh 5-2 cells, 1000 μg/ml G418 for Huh 9-13 cells
Anti-HCV Assay in Huh 5-2 Cells.
Huh 5-2 cells were seeded at a density of 5×10^3 per well in a tissue culture treated white 96-well view plate (Packard, Canberra, Canada) in complete DMEM supplemented with 250 μg/ml G418. Following incubation for 24 h at 37° C. (5% CO2) medium was removed and serial dilutions in complete DMEM (without G418) of the test compounds were added in a total volume of 100 μl. After 4 days of incubation at 37° C., cell culture medium was removed and luciferase activity was determined using the Steady-Glo luciferase assay system (Promega, Leiden, The Netherlands); the luciferase signal was measured using a Luminoskan Ascent (Thermo, Vantaa, Finland). The 50% effective concentration (EC50) was defined as the concentration of compound that reduced the luciferase signal by 50%.

[2] = CC50 (cytotoxicity, Table I); type: cell-based; details: human, Huh 7 cells; method and cell line not described
[3] = system: subgenomic HCV replicons I377/NS3-3′/wt (Huh 9-13); assay: Anti-HCV assay in Huh 9-13 cells (RT-qPCR of replicon RNA); type: cell-based, hepatitis C virus (HCV); details: read-out: HCV Huh 9-13 EC50
Source text: as §1
Anti-HCV Assay in Huh 9-13 Cells.
Huh 9-13 cells were seeded at a density of 5×10^3 cells per well in 96-well cell culture plates in complete DMEM supplemented with 1000 μg/ml G418. Following incubation for 24 h at 37° C. cell culture medium was removed and serial dilutions of the test compounds in complete DMEM without G418 were added in a total volume of 100 μl. After 4 days of incubation at 37° C., cell culture fluid was removed and monolayers were washed once with phosphate-buffered saline. Cells were lysed in 350 μl RLT buffer (Qiagen, Venlo, The Netherlands) according to the Manufacturer's instruction. Lysates were stored at −80° C. until further use. […]

Huh 7 cells = assay: CC50 (cytotoxicity, Table I); type: cell-based; details: method and cell line not described
[4] = Hepatitis C virus, Huh-5-2, 96 h, read-out: HCV Huh 5-2 EC50, Huh 5-2 cells, 4 days incubation, concentration that reduced the luciferase signal by 50%
[5] = Huh 5-2 cells, 4 days incubation, concentration that reduced the luciferase signal by 50%, read-out: HCV Huh 5-2 EC50

With C[C@H](NP(=O)(OC[C@H]1O[C@@H](n2cnc3c(=O)[nH]c(N)nc32)C(C)(O)C1O)Oc1cccc2ccccc12)C(=O)OC(C)(C)C (stereo partly drawn) [CHC8, β-2′-methyl-guanosine 5′-O-[α-naphthyl(tert-butoxy-L-alaninyl)]phosphate] the EC50 [1, 4] was > 50 µM and the CC50 [2] was > 50 µM.

In the case of C[C@H](NP(=O)(OC[C@H]1O[C@@H](n2cnc3c(=O)[nH]c(N)nc32)C(C)(O)C1O)Oc1cccc2ccccc12)C(=O)OCc1ccccc1 (stereo partly drawn) [CHC6, β-2′-methyl-guanosine 5′-O-[α-naphthyl(benzoxy-L-alaninyl)]phosphate], the “potency with respect to HCV compared with compound CHC5 (free nucleoside)” value [1] is reported as “greater potency”, the CC50 [2] is reported as > 50 µM and the EC50 ([3]; Hepatitis C virus, 96 h) is reported as 0.06 µM.

With CCOC(=O)[C@H](C)NP(=O)(OC[C@H]1O[C@@H](n2cnc3c(N)ncnc32)C(C)(O)C1O)Oc1cccc2ccccc12 (stereo partly drawn) [CHC2, β-2′-methyl-adenosine 5′-O-[α-naphthyl(ethoxy-L-alaninyl)]phosphate] the EC50 [1, 4] was 0.12 µM and the CC50 [2] was > 50 µM.

With C[C@H](NP(=O)(OC[C@H]1O[C@@H](n2cnc3c(=O)[nH]c(N)nc32)C(C)(O)C1O)Oc1ccccc1)C(=O)OCc1ccccc1 (stereo partly drawn) [CHC9, β-2′-methyl-guanosine 5′-O-[phenyl(benzoxy-L-alaninyl)]phosphate] the EC50 [1, 4] was 36 µM, the CC50 [2] was > 50 µM and the EC50 ([3]; Hepatitis C virus, 96 h) was 4.1 µM.

In the case of CC1(O)C(O)[C@@H](CO)O[C@H]1n1cnc2c(N)ncnc21 (stereo partly drawn) [CHC1, β-2′-methyl-adenosine, reference compound], the EC50 ([1]; Hepatitis C virus, Huh-5-2, 96 h, Huh 5-2 cells, 4 days incubation, concentration that reduced the luciferase signal by 50%, read-out: HCV Huh 5-2 EC50) is reported as 0.14 µM, the EC50 [1, 5] is reported as 0.08 µM and 0.13 µM and the CC50 [2] is reported as 29 µM. For the same compound, the CC50 (Huh 7 cells) was > 33 µM.

In the case of C[C@@]1(O)[C@H](O)[C@@H](CO)O[C@H]1n1cnc2c(=O)[nH]c(N)nc21 [CHC5, β-2′-methyl-guanosine, reference compound], the EC50 [1, 5] is reported as 3 µM and 5 µM, the CC50 (Huh 7 cells) is reported as > 50 µM and the EC50 ([3]; Huh 9-13 cells, 4 days incubation, concentration that reduced replicon RNA content by 50% (RT-qPCR)) is reported as 1.5 µM.

C[C@H](NP(=O)(OC[C@H]1O[C@@H](n2cnc3c(N)ncnc32)C(C)(O)C1O)Oc1cccc2ccccc12)C(=O)OCc1ccccc1 (stereo partly drawn) [CHC3, β-2′-methyl-adenosine 5′-O-[α-naphthyl(benzoxy-L-alaninyl)]phosphate] gave an EC50 [1, 4] of 0.16 µM and a CC50 [2] of 44 µM.

With C[C@H](NP(=O)(OC[C@H]1O[C@@H](n2cnc3c(N)ncnc32)C(C)(O)C1O)Oc1cccc2ccccc12)C(=O)OC(C)(C)C (stereo partly drawn) [CHC4, β-2′-methyl-adenosine 5′-O-[α-naphthyl(tert-butoxy-L-alaninyl)]phosphate] the EC50 [1, 4] was 2.36 µM and the CC50 [2] was > 50 µM.

With CCOC(=O)[C@H](C)NP(=O)(OC[C@H]1O[C@@H](n2cnc3c(=O)[nH]c(N)nc32)C(C)(O)C1O)Oc1cccc2ccccc12 (stereo partly drawn) [CHC7, β-2′-methyl-guanosine 5′-O-[α-naphthyl(ethoxy-L-alaninyl)]phosphate] the EC50 [1, 4] was 0.15 µM, the “potency with respect to HCV compared with compound CHC5 (free nucleoside)” value [1] was “greater potency” and the EC50 ([1]; read-out: HCV Huh 5-2 EC50, Huh 5-2 cells, 4 days incubation, concentration that reduced the luciferase signal by 50%) was 0.2 µM and 0.16 µM. For the same compound, the CC50 [2] was > 50 µM.
